Earlier results in patent US20070292887A1, “Immunohistochemical Methods” (Bayer Pharmaceuticals Corporation, priority 2003, published 2007).
Read-outs that look alike come from different tables or passages of the source.

Tests used:
[1] = system: human cancer cell lines; settings: in vitro
[2] = system: human cancer cell lines; settings: in vivo
[3] = system: SKOV3 xenografts; settings: SKOV3 xenografts in mice
[4] = system: MDA-MB-231 xenografts; settings: MDA-MB-231 xenografts in mice
[5] = system: SKOV (human ovarian cancer) cells; settings: preincubation of SKOV cells
[6] = system: keratinocytes (normal skin); settings: biopsies of normal skin prior to and following administration, humans

## COc1cc2ncnc(Nc3ccc(F)c(Cl)c3)c2cc1OCCCN1CCOCC1 [ZD1839]
[1]
  proliferation of human cancer cell lines: inhibited the proliferation
[2]
  proliferation of human cancer cell lines: inhibited the proliferation
[3]
  constitutive ERK MAP kinase activation: inhibition
  tumor growth rates: reductions in tumor growth rates
[4]
  constitutive ERK MAP kinase activation: inhibition
  tumor growth rates: reductions in tumor growth rates
[5]
  EGF-induced increases in activation of ERK MAP kinases: block
  EGF-induced increases in activation of PKB/Akt: block
[6]
  expression of Ki-67 in keratinocytes: decreased expression
  expression of activated MAPK in keratinocytes: decreased expression
